Laboratory results as given in US8975397B2, “Solid forms” (Hoffmann-La Roche Inc., priority 2011, dated 2015).
Converted amounts (≈) assume the structure as drawn. “Also recorded” adds a separate entry of the source. Like-named read-outs stand apart in the source and are kept apart here. Blank lines part the entries; values can stand above or below the molecule they belong to.

Assays:
[1] = Solid form stability towards humidity and water (storage, Humidity Controlled XRPD); conditions: for phase change upon storage at 100% rH: ambient temperature (Form C: e.g. 30 days); for relative humidity at which Form B dehydrates into Form E: storage / Humidity Controlled XRPD, monohydrate
Protocol: Humidity Controlled XRPD analyses were performed in reflection geometry with a Siemens D5000 Diffractometer (Cu radiation source, NiK beta filter, Scintillation detector, angular range 3° to 42° 2Theta, approximately 180 minutes total measurement time per humidity level). The diffractometer is equipped with an MR1 (Materials Research Instruments) humidity chamber. The humidity within the chamber is adjusted with an ANSYCO humidity controller (SYCOS H-HOT).
50 mg of Form B was subjected to dehydration/hydration cycles.

[2] = Hygroscopicity (European Pharmacopoeia classification); type: physicochemical; conditions: for hygroscopicity: mass increase 0% rH to 90% rH
Excerpt: The term “hygroscopicity” describes the ability of a solid material to adsorb moisture. The hygroscopicity of a given API is characterized [European Pharmacopoeia—6th Edition (2008), Chapter 5.11) by the increase in mass when the relative humidity is raised from 0% rH to 90% rH: • non-hygroscopic: weight increase Δm<0.2%; • slightly hygroscopic: weight increase 0.2%≦Δm<2.0%; • hygroscopic: weight increase 2.0%≦Δm<15.0%; • very hygroscopic: weight increase Δm≧15.0%; • deliquescent: sufficient water is adsorbed to form a liquid.

[3] = Temperature Controlled XRPD / heating: solid form change; type: physicochemical; conditions: for solid form changes at elevated temperature: Temperature Controlled XRPD
Protocol: Temperature Controlled XRPD analyses of Form B show a phase transition to Form A at elevated temperature. In the temperature range 105-135° C. only Form A is present. In the temperature range of 65-95° C. an intermediate state is observed that is characterized by significant changes in peak positions.

[4] = Thermodynamic stability of polymorphs; type: physicochemical
Excerpt: The term “monotropy” denotes the relationship between two or more crystal forms of the same substance in which the rank order of thermodynamic stabilities of the polymorphs is retained at all temperatures below the melting point.

[5] = In vitro dissolution in miniaturized system (SGF, FeSSIF); type: physicochemical; conditions: comparison with Form B
Protocol: FIG. 21 illustrates the mean in vitro dissolution profiles in SGF. Mean in vitro dissolution profiles of micronized powders of Form A (∘), Form B (▾), Form C (▪) and γ-CD inclusion complex (Δ) in SGF at room temperature. Measurements were performed in triplicate (n=3).
FIG. 22 illustrates the mean in vitro dissolution profiles in FeSSIF. Mean in vitro dissolution profiles of micronized powders of Form A (∘), Form B (▾), Form C (▪) and γ-CD inclusion complex (Δ) in FeSSIF at room temperature. Measurements were performed in triplicate (n=3).
The in vitro dissolution studies performed in this work were conducted in a miniaturized system with 100 mL dissolution medium per experiment. In comparison to the 1000 mL vessels of the conventional USP apparatus the experimental set-up that was used here was scaled-down and simplified (magnetic stirring instead of paddles, room temperature instead of 37° C.). […] Simulated gastric fluid (SGF) was prepared with 2 g/L NaCl and 1 g/L Triton® X-100 in 0.1 N HCl. The resulting measured pH of SGF was 1.2.
Oral absorption of a drug compound from a solid dosage form is dependent on dissolution rate and solubility. In the present work the in vitro dissolution of the γ-CD inclusion complex was compared to micronized powders of polymorph Form A, Form B and Form C. […]

[6] = Excerpt: FIG. 20 illustrates the phase solubility diagram of (1,1-dioxo-1λ^6-thiomorpholin-4-yl)-{6-[3-(4-fluoro-phenyl)-5-methyl-isoxazol-4-ylmethoxy]-pyridin-3-yl}-methanone and γ-CD. The API solubility is shown in [μg/mL].
Phase solubility diagrams are used to characterize complex formation between two compounds and represent the solubility of the API as a function of the cyclodextrin concentration. […] Anal. Chem. Instrum. (1965) 4:117-212] and Brewster [M E. Brewster et al. Adv. Drug Delivery Rev. (2007) 59:645-666] (FIG. 20).
Anal. Chem. Instrum. (1965) 4:117-212]:
[formula] […] The binding constant (K) is a measure of the affinity of the API to enter the relatively apolar cavity of the CD.

[7] = Biopharmaceutical classification system (BCS); type: physicochemical
Excerpt: The compound of formula (I), its manufacture, its pharmacological activity as inverse agonists of the GABA A α5 receptor, and its use for the treatment, prevention and/or delay of progression of various central nervous system (CNS) conditions have been described in WO 2009/071476. […] Res. (1995) 12:413-420].

[8] = Temperature Controlled XRPD of Form B

Structure (SMILES): Cc1onc(-c2ccc(F)cc2)c1COc1ccc(C(=O)N2CCS(=O)(=O)CC2)cn1 [amorphous Form, (1,1-dioxo-1λ^6-thiomorpholin-4-yl)-{6-[3-(4-fluoro-phenyl)-5-methyl-isoxazol-4-ylmethoxy]-pyridin-3-yl}-methanone]
phase change upon storage at 100% rH [1]: no phase transformation has been observed
hygroscopicity [2]: slightly hygroscopic (weight increase 0.2%≦Δm<2.0%)

Structure (SMILES): Cc1onc(-c2ccc(F)cc2)c1COc1ccc(C(=O)N2CCS(=O)(=O)CC2)cn1 [Form A, (1,1-dioxo-1λ^6-thiomorpholin-4-yl)-{6-[3-(4-fluoro-phenyl)-5-methyl-isoxazol-4-ylmethoxy]-pyridin-3-yl}-methanone]
solid form changes at elevated temperature [3]: do not show solid form changes
thermodynamic stability of the polymorph [4]: metastable
thermodynamic stability of the polymorph ([4]; listed as form A): only metastable

Structure (SMILES): Cc1onc(-c2ccc(F)cc2)c1COc1ccc(C(=O)N2CCS(=O)(=O)CC2)cn1 [Form B, (1,1-dioxo-1λ^6-thiomorpholin-4-yl)-{6-[3-(4-fluoro-phenyl)-5-methyl-isoxazol-4-ylmethoxy]-pyridin-3-yl}-methanone monohydrate]
temperature range in which an intermediate state is observed [3, 8]: 65-95 °C
temperature range in which only Form A is present [3, 8]: 105-135 °C
temperature of transformation into Form A upon heating ([3]; heating): > 100 °C
stability in the presence of humidity ([1]; e.g. at ambient conditions, compared to Form A): substantially increased as compared to Form A
relative humidity at which Form B dehydrates into Form E ([1]; listed as form B): 0 % rH
relative humidity at which Form B dehydrates into Form E [1]: < 5 % rH
hygroscopicity ([2]; monohydrate): hygroscopic (weight increase 2.0%≦Δm<15.0%)

Further lines, with some results ahead:

relative humidity at which Form E reconverts (rehydrates) into Form B ([1]; exposure to humidity): > 5 % rH
Structure (SMILES): Cc1onc(-c2ccc(F)cc2)c1COc1ccc(C(=O)N2CCS(=O)(=O)CC2)cn1 [Form E, (1,1-dioxo-1λ^6-thiomorpholin-4-yl)-{6-[3-(4-fluoro-phenyl)-5-methyl-isoxazol-4-ylmethoxy]-pyridin-3-yl}-methanone]

solid form changes at elevated temperature [3]: do not show solid form changes
phase change upon storage at 100% rH [1]: does not induce this phase change
phase change in the presence of water ([1]; suspended state): transforms into Form B
hygroscopicity compared to Form A ([2]; comparison): less hygroscopic than Form A
Structure (SMILES): Cc1onc(-c2ccc(F)cc2)c1COc1ccc(C(=O)N2CCS(=O)(=O)CC2)cn1 [Form C, (1,1-dioxo-1λ^6-thiomorpholin-4-yl)-{6-[3-(4-fluoro-phenyl)-5-methyl-isoxazol-4-ylmethoxy]-pyridin-3-yl}-methanone]
thermodynamic stability of the polymorph [4]: more stable than Form A; also recorded: most stable polymorph overall
solubility in simulated gastric fluid (SGF) [5]: considerably improved as compared to Form B

phase solubility diagram type [6]: BS-type behavior
aqueous solubility ([7]; BCS): low
permeability ([7]; BCS): high
BCS class ([7]; biopharmaceutical classification system): BCS 2
Structure (SMILES): Cc1onc(-c2ccc(F)cc2)c1COc1ccc(C(=O)N2CCS(=O)(=O)CC2)cn1 [compound of formula (I), (1,1-Dioxo-1λ^6-thiomorpholin-4-yl)-{6-[3-(4-fluoro-phenyl)-5-methyl-isoxazol-4-ylmethoxy]-pyridin-3-yl}-methanone]

solubility limit in aqueous solution [6]: 150 mM (≈ 195 mg/mL)
Structure (SMILES): OC[C@H]1O[C@@H]2O[C@H]3[C@H](O)[C@@H](O)[C@@H](O[C@H]4[C@H](O)[C@@H](O)[C@@H](O[C@H]5[C@H](O)[C@@H](O)[C@@H](O[C@H]6[C@H](O)[C@@H](O)[C@@H](O[C@H]7[C@H](O)[C@@H](O)[C@@H](O[C@H]8[C@H](O)[C@@H](O)[C@@H](O[C@H]9[C@H](O)[C@@H](O)[C@@H](O[C@H]1[C@H](O)[C@H]2O)O[C@@H]9CO)O[C@@H]8CO)O[C@@H]7CO)O[C@@H]6CO)O[C@@H]5CO)O[C@@H]4CO)O[C@@H]3CO [γ-cyclodextrin]
